Assay results from PubChem BioAssay (NCI).
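All cell lines were grown in 96-well plates and treated with compound for 48 hours. Abbreviation: GI50, concentration required for 50% inhibition of growth. Definition used: TGI = concentration required for complete inhibition of growth.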

What was measured:
Test in all cases: inhibition of tumour cell growth, NCI panel, 48 h
ACHN renal = tested on: ACHN renal
OVCAR-8 ovarian = tested on: OVCAR-8 ovarian
MCF7 breast = tested on: MCF7 breast
COLO 205 colon = tested on: COLO 205 colon
UACC-62 melanoma = tested on: UACC-62 melanoma
786-0 renal = tested on: 786-0 renal
NCI/ADR-RES ovarian = tested on: NCI/ADR-RES ovarian
SK-MEL-28 melanoma = tested on: SK-MEL-28 melanoma
CAKI-1 renal = tested on: CAKI-1 renal
RXF 393 renal = tested on: RXF 393 renal

| Structure (SMILES) | GI50 (ACHN renal) [µM] | TGI (ACHN renal) [µM] | GI50 (OVCAR-8 ovarian) [µM] | TGI (OVCAR-8 ovarian) [µM] | GI50 (MCF7 breast) [µM] | TGI (MCF7 breast) [µM] | GI50 (COLO 205 colon) [µM] | TGI (COLO 205 colon) [µM] | GI50 (UACC-62 melanoma) [µM] | TGI (UACC-62 melanoma) [µM] | GI50 (786-0 renal) [µM] | TGI (786-0 renal) [µM] | GI50 (NCI/ADR-RES ovarian) [µM] | TGI (NCI/ADR-RES ovarian) [µM] | GI50 (SK-MEL-28 melanoma) [µM] | TGI (SK-MEL-28 melanoma) [µM] | TGI (CAKI-1 renal) [µM] | TGI (RXF 393 renal) [µM] | GI50 (CAKI-1 renal) [µM] | GI50 (RXF 393 renal) [µM] |
| --- | --- | --- | --- | --- | --- | --- | --- | --- | --- | --- | --- | --- | --- | --- | --- | --- | --- | --- | --- | --- |
| COC(=O)C12CC(NC(=O)c3csc([C@@H](C[C@H](C(C)C)N(C)C(=O)[C@@H](NC(=O)[C@H]4CCCCN4C)C4CC4)OC(C)=O)n3)(C1)C2 | 0.123 | > 16.7 | 0.0501 | > 16.7 | 0.00813 | > 16.7 | 0.00972 | 0.201 | 0.0153 | > 16.7 | 0.0394 | > 16.7 | 4.69 | > 16.7 | 0.148 | > 16.7 |  |  |  |  |
| O=C(O)c1cc(=O)c2c([nH]c3ccccc32)s1 |  | > 100 |  | > 100 |  |  |  | > 100 |  | > 100 |  | > 100 |  |  |  | > 100 | > 100 | > 100 |  |  |
| COC(=O)c1cc2c(cc1Cl)SC1=NN(C)S(=O)N1S2(=O)=O (stereo unspecified) | > 100 | > 100 | > 100 | > 100 | > 100 | > 100 | > 100 | > 100 | > 100 | > 100 | > 100 | > 100 | > 100 | > 100 | > 100 | > 100 | > 100 |  | > 100 |  |
| CCOC(=O)CN(Cn1cncn1)Cn1cncn1 |  | > 100 |  | 58.8 |  |  |  | > 100 |  | > 100 |  | > 100 |  |  |  | 37.1 | > 100 | 36 |  |  |
| CNc1ccc2ncccc2c1[N+](=O)[O-] |  | > 100 |  | > 100 |  |  |  |  |  | > 100 |  | > 100 |  |  |  | > 100 | > 100 | > 100 |  |  |
| CCn1c(-c2cc3c([nH]c4ccccc43)c(-c3cccc(O)c3)n2)n[nH]c1=S | 3.02 | 10.1 | 3.96 | 31 | 2.79 | 14 | 7.65 | 24.3 | 1.95 | 7.35 | 2.29 | 6.31 | 3.15 | 42 | 2.63 | 12.3 |  | 6.5 |  | 2.01 |
| N#C/C(=C\c1cccc(O)c1O)C(N)=O |  | > 100 |  | > 100 |  |  |  | 77.7 |  | > 100 |  | > 100 |  |  |  | > 100 | > 100 | 28 |  |  |
| CCOC(=O)c1c(C)n(Cc2ccc(Cl)cc2Cl)c2c1cc1oc(=O)c(=O)n3cnc2c13 | 14.4 | 27.5 | 7.68 | 25.8 |  |  | 17 | 33.3 |  |  | 18.3 | 34.9 |  |  | 14.2 | 31.7 | 32.3 | 15.3 | 17 | 4.16 |
| Cl/C(N=Nc1ccccc1)=N/Nc1ccccc1 |  | > 100 |  | > 100 |  |  |  | > 100 |  |  |  | > 100 |  |  |  | > 100 | > 100 | > 100 |  |  |
| COc1ccc(-c2cc(C(=O)Nc3cc(C(F)(F)F)cc(C(F)(F)F)c3)c3ccccc3n2)cc1 |  | 76.2 |  | 38.9 |  |  |  | 28.4 |  | > 100 |  | 28.1 |  |  |  | 73.9 | 25.5 | 21 |  |  |
| [O-]c1ccccc1C=Nc1ccc2c(c1)CCC2.[O-]c1ccccc1C=Nc1ccc2c(c1)CCC2.[O]=[U+2]=[O] | 70.3 | > 100 | 59.3 | > 100 |  |  | 55.2 | > 100 | > 100 | > 100 | 40.3 | > 100 |  |  | > 100 | > 100 | > 100 | > 100 | > 100 | > 100 |
| CN(C)/C=N\c1ccnc(=O)[nH]1 |  | > 100 |  | > 100 |  |  |  | > 100 |  | > 100 |  | > 100 |  |  |  | > 100 | > 100 | > 100 |  |  |
| COc1ccc(OC(C(=O)O)C(C)C)c2c1CCCC2=O (stereo unspecified) |  | > 100 |  | > 100 |  |  |  | > 100 |  | > 100 |  | > 100 |  |  |  | > 100 | > 100 |  |  |  |
| Cc1ccc(S(=O)(=O)N=NC=C2c3ccccc3N(O)c3ccccc32)cc1 |  | 9.43 |  | 14.7 |  |  |  | 7.99 |  | 18.8 |  | 7.36 |  |  |  | 14.5 | 23.8 |  |  |  |
| O=C(C#Cc1ccccc1)N1c2ccccc2CC1c1c[nH]c2ccccc12 (stereo unspecified) |  | 66 |  | 27.5 |  |  |  | 31.6 |  | 22.8 |  | 34.8 |  |  |  | 30.5 | 33.2 | 19.5 |  |  |
| Cc1c2c(cc3c1C(=O)C(=O)C1=C3OC[C@@H]1C)C(C)(C)CCC2 |  | 38.3 |  | 52.5 |  |  |  | 20.4 |  | 25.9 |  | 75.9 |  |  |  | 27.3 | > 100 | 33.5 |  |  |
| O=C1C(=O)N(c2ccc(Cl)cc2)C(=O)C(=O)C1c1nc2ccccc2s1 |  | > 100 |  | > 100 |  |  |  | > 100 |  | > 100 |  | > 100 |  |  |  | > 100 | > 100 | > 100 |  |  |
| C#CCNC(=O)ON1C(=O)CCC1=O |  | > 100 |  | > 100 |  |  |  | > 100 |  | > 100 |  | > 100 |  |  |  | > 100 |  | > 100 |  |  |
| COc1ccc2c(c1OC)-c1c(c3ccc([N+](=O)[O-])cc3c(=O)n1CCCBr)C2=O |  |  | > 100 | > 100 | 3.66 | 20.6 | > 100 | > 100 | 18.1 | 76.1 | 21.6 | 52.1 | 26 | 98.9 |  |  | > 100 |  | 7.31 |  |
| O=C1OC(c2ccccc2)=N/C1=C\c1ccc(Oc2ccc(Cl)c(Cl)c2)cc1 |  | > 100 |  | 46 |  |  |  | > 100 |  | 52.3 |  | > 100 |  |  |  |  |  | 69.3 |  |  |
| NNc1cnn(-c2ccccc2)c(=O)c1Cl |  | > 100 |  | > 100 |  |  |  | > 100 |  | > 100 |  | > 100 |  |  |  | > 100 | > 100 | > 100 |  |  |
| O=c1cccccc1NCCCCCCCNc1cccccc1=O |  | > 100 |  | > 100 |  |  |  | > 100 |  | 84.5 |  | > 100 |  |  |  |  | > 100 | 25.8 |  |  |
